US8003812B2, “C10 cyclopentyl ester substituted taxanes” (priority 2004, dated 2011)
Where two headings read alike, the source gives them in different places.

Experiments:
Sprague-Dawley rats [1] = assay: In vivo toxicity assessment in rats, oral; design: species or system rat; details: for Rat tox score PO: summary score
Procedure: (§1) Toxicity was assessed in 250-300g Sprague-Dawley rats and three rats were used per dose group. Three dose groups of the test compound, (i.e., 3 mg/kg, 9 mg/kg and 12 mg/kg for intravenous administration; 15 mg/kg, 30 mg/kg and 40 mg/kg) and 1 control group constituted a study. Animals were observed and clinical chemistry data collected at days 4 and 10. Rats were euthanized on day 11 and the nerves were excised and fixed upon euthanization for further examination.
(§2) Each rat is scored as described below and a final toxicity score that incorporates all parameters is assigned. A dead rat is assigned a score of zero. Most of the parameters contribute a positive value towards a total possible score of 130. For body weight, white blood cell, and platelet decreases, recovery is considered. […] The total score is divided by 13 to put it on a scale from 0 to 10.

[2] = system: VM46 (resistant variant of human colon carcinoma HCT 116); assay: In vitro cytotoxicity, cell colony formation assay, VM46; assay type: cell-based
Procedure: (§3) The cells were incubated in a CO2 incubator at 37° C. for 5 h for attachment to the bottom of Petri dishes. The compound of the present invention was made up fresh in medium at ten times the final concentration, and then 0.3 mL of this stock solution was added to the 2.7 mL of medium in the dish. The cells were then incubated with drugs for 72 h at 37° C. At the end of incubation the drug-containing media were decanted, the dishes were rinsed with 4 mL of Hank's Balance Salt Solution (HBSS), 5 mL of fresh medium was added, and the dishes were returned to the incubator for colony formation. The cell colonies were counted using a colony counter after incubation for 7 days. Cell survival was calculated and the values of IC50 (the drug concentration producing 50% inhibition of colony formation) were determined for each tested compound.
Identical assessments were carried out using VM46 (resistant variant of human colon carcinoma HCT 116 obtained from Dr. Li-Xi, M.D, Ph.D., California Pacific Medical Center, CA).

[3] = system: HCT 116 human colon carcinoma; assay: In vitro cytotoxicity, cell colony formation assay, HCT116; assay type: cell-based
Procedure: as §3

Sprague-Dawley rats [4] = assay: In vivo toxicity assessment in rats, intravenous; details: IV; for Rat tox score IV: summary score
Procedure: as §1, §2

[5] = system: human pancreatic tumor xenograft Panc-1; details: Panc-1, best score 10
Procedure: The tumor used for this study was maintained in athymic nude mice. A tumor fragment (1 mm^3) was implanted s.c. into the right flank of each test mouse. Tumors were monitored twice weekly and then daily as their volume approached 200-400 mm^3 with a mean of 250-300 mm^3. On Day 1 of the study, the animals were sorted into treatment groups with tumor sizes of 171.5-320.0 mm^3 and group mean tumor sizes of 212.6-216.0 mm^3. Tumor size, in mm^3, was calculated from the following formula:
[formula] where w=width and l=length in mm of the tumor. Tumor weight was estimated with the assumption that 1 mg is equivalent to 1 mm^3 of tumor volume. […] All treatments were administered orally, once on Day 1 (qd×1). […] In all groups, the dosing volume of 0.6 mL/20 g mouse was scaled to the body weight of each animal. Each animal was euthanized when its neoplasm reached the predetermined endpoint size (1200 mm^3). The time to endpoint (TTE) for each mouse was calculated by the following equation:
(§4) [formula] where TTE is expressed in days, endpoint volume is in mm^3, b is the intercept, and m is the slope of the line obtained by linear regression of a log-transformed tumor growth data set. The data set is comprised of the first observation that exceeded the study endpoint volume and the three consecutive observations that immediately preceded the attainment of the endpoint volume. […] Animals classified as TR (treatment-related) deaths or NTRM (non-treatment-related metastasis) deaths are assigned a TTE value equal to the day of death. Animals classified as NTR (non-treatment-related) deaths are excluded from TTE calculations. Treatment efficacy was determined from tumor growth delay (TGD), which is defined as the increase in the median TTE for a treatment group compared to the control group: TGD=T−C, expressed in days, or as a percentage of the median TTE of the control group:
[formula] where: • T=median TTE for a treatment group and • C=median TTE for control Group 1.
(§5) Treatment may cause partial regression (PR) or complete regression (CR) of the tumor in an animal. In a PR response, the tumor volume is 50% or less of its Day 1 volume for three consecutive measurements during the course of the study, and equal to or greater than 13.5 mm^3 for one or more of these three measurements. In a CR response, the tumor volume is less than 13.5 mm^3 for three consecutive measurements during the course of the study. An animal with a CR response at the termination of a study is additionally classified as a long-term tumor-free survivor (LTTFS).
With respect to toxicity, the animals were weighed daily on Days 1-5, then twice weekly until the completion of the study. The mice were examined frequently for overt signs of any adverse, drug-related side effects. Acceptable toxicity for the maximum tolerated dose (MTD) of a cancer drug in mice is defined by the NCl as a group mean body-weight (BW) loss of less than 20% during the test, and not more than one toxic death among ten treated animals. The log rank test was employed to analyze the significance of the difference between the TTE values of a drug-treated group and the vehicle-treated control group. The log rank test analyzes the data for all animals except the NTR deaths. The two-tailed statistical analyses were conducted at P=0.05. The group median tumor growth curves show the median tumor volume (MTV) as a function of time. When an animal exited the study due to tumor size or TR death, the final tumor volume recorded for the animal was included with the data used to calculate the median volume at subsequent time points.

[6] = system: HT29 (human colon carcinoma) xenograft; details: HT29, best score 10
Excerpt: Score=10*(TWd1−TWdn)/TWd1, where
TWd1=tumor weight on day 1
(§6) TWDn=lowest tumor weight on day 10 or later
(§7) Thus the best score for complete regression would be 10.

[7] = system: DLD-1 (resistant human colon carcinoma); assay: In vitro cytotoxicity, MTT assay, DLD-1; assay type: cell-based
[8] = system: human pancreatic tumor xenograft Panc-1; details: single dose IV
Excerpt: as §4, §5
With respect to toxicity, the animals were weighed daily on Days 1-5, then twice weekly until the completion of the study. The mice were examined frequently for overt signs of any adverse, drug-related side effects. […] The log rank test was employed to analyze the significance of the difference between the TTE values of a drug-treated group and the vehicle-treated control group. The log rank test analyzes the data for all animals except the NTR deaths. The two-tailed statistical analyses were conducted at P=0.05. The group median tumor growth curves show the median tumor volume (MTV) as a function of time. When an animal exited the study due to tumor size or TR death, the final tumor volume recorded for the animal was included with the data used to calculate the median volume at subsequent time points. If more than one death occurred in a treatment group, the tumor growth curve for that group was truncated at the time of the second death.
Human Panc-1 pancreatic carcinomas were maintained in athymic nude mice. A tumor fragment (1 mm^3) was implanted s.c. into the right flank of each test mouse. Tumors were monitored twice weekly and then daily as their size approached 200-400 mm^3 with a mean of 250-300 mm^3. On Day 1 of the study, the animals were sorted into groups of six mice, with tumor sizes of 171.5-486.0 mm^3 and group mean tumor sizes of 269.7-275.0 mm^3. Mice were sorted into groups containing six mice each, and treated according to the protocol in Tables 2A and 2B. All treatments were administered intravenously. Control Group 1 mice received the ethanol 5% and Liposyn II 95% vehicle, once on Day 1 (qd×1). […] Dosing volumes were 0.5 ml/20 g body weight for qd×1 dosing regimens and 0.3 mL/20 g body weight for the qod×5 or q4d×4 dosing schedules. Dosing volumes were scaled to the body weight of each animal. The vehicle was given to Group 1 mice in a single dose on Day 1 (qd×1).

[9] = system: HT29 (human colon carcinoma) xenograft; details: single dose IV
Excerpt: Score=10*(TWd1−TWdn)/TWd1, where
TWd1=tumor weight on day 1
as §6, §7

[10] = Homo sapiens, HCT-116, 72 h drug incubation

SMILES: CC(=O)OC12COC1CC(O)C1(C)C(=O)C(OC(=O)C3CC3)C3=C(C)C(OC(=O)C(O)C(NC(=O)OC(C)(C)C)c4cccs4)CC(O)(C(OC(=O)c4ccccc4)C21)C3(C)C (stereo not drawn) [Compound 0854, reference compound]
- Rat tox score PO (Sprague-Dawley rats [1]; scale 0 to 10): 0
- IC50 ([2]; 72 h drug incubation): 0.09 nM
- IC50 ([3]; 72 h drug incubation): 0.05 nM
- Rat tox score IV (Sprague-Dawley rats [4]; scale 0 to 10): 1

SMILES: CC(=O)OC12COC1CC(O)C1(C)C(=O)C(OC(=O)C3CC3)C3=C(C)C(OC(=O)C(O)C(NC(=O)OC(C)(C)C)c4ccncc4)CC(O)(C(OC(=O)c4ccccc4)C21)C3(C)C (stereo not drawn) [Compound 2813]
- IC50 ([2]; 72 h drug incubation): 8.22 nM
- IC50 ([3]; 72 h drug incubation): 0.05 nM

SMILES: CC(=O)OC12COC1CC(O)C1(C)C(=O)C(OC(=O)C3CC3)C3=C(C)C(OC(=O)C(O)C(NC(=O)OC(C)C)c4cccs4)CC(O)(C(OC(=O)c4ccccc4)C21)C3(C)C (stereo not drawn) [Compound 3071, reference compound]
- Tox Score, Dose 15 mg (Sprague-Dawley rats [1]; Oral, dose 15 mg, scale 0 to 10): 6.2
- Tox Score, Dose 30 mg (Sprague-Dawley rats [1]; Oral, dose 30 mg, scale 0 to 10): 5.1
- Tox Score, Dose 40 mg (Sprague-Dawley rats [1]; Oral, dose 40 mg, scale 0 to 10): 1.5
- Tox Score, Average (Sprague-Dawley rats [1]; Oral, average of 3 dose groups): 4.3
- Tox Score, Weighted Avg (Sprague-Dawley rats [1]; Oral, weighted by dose): 3.6
- Rat tox score PO (Sprague-Dawley rats [1]; scale 0 to 10): 4
- IC50 ([2]; 72 h drug incubation): 1.51 nM
- Efficacy Score = 10*(TWd1−TWdn)/TWd1 ([5]; single dose oral 60 mg/kg): 5.8
- Efficacy Score = 10*(TWd1−TWdn)/TWd1 ([5]; single dose oral 120 mg/kg): 7.3
- Efficacy Score = 10*(TWd1−TWdn)/TWd1 ([6]; single dose oral 60 mg/kg): 6.3
- Efficacy Score = 10*(TWd1−TWdn)/TWd1 ([6]; single dose oral 120 mg/kg): 7.5
- IC50 ([3]; 72 h drug incubation): 0.17 nM
- Tox Score, Dose 3 mg (Sprague-Dawley rats [4]; dose 3 mg, scale 0 to 10): 7.7
- Tox Score, Dose 9 mg (Sprague-Dawley rats [4]; dose 9 mg, scale 0 to 10): 6
- Tox Score, Dose 12 mg (Sprague-Dawley rats [4]; dose 12 mg, scale 0 to 10): 3.2
- Tox Score, Weighted Avg (Sprague-Dawley rats [4]; Wt Avg = (Σ(dose × grp score))/24): 4.8
- Tox Score, Average (Sprague-Dawley rats [4]; average of 3 dose groups): 5.6
- Rat tox score IV (Sprague-Dawley rats [4]; scale 0 to 10): 5

SMILES: CC(=O)O[C@H]1C(=O)[C@@]2(C)[C@H]([C@H](OC(=O)c3ccccc3)[C@]3(O)C[C@H](OC(=O)[C@H](O)[C@@H](NC(=O)c4ccccc4)c4ccccc4)C(C)=C1C3(C)C)[C@]1(OC(C)=O)CO[C@@H]1C[C@@H]2O [paclitaxel]
- IC50 [2, 10]: 20 nM
- IC50 [3, 10]: 2.1 nM
- IC50 ([7]; Homo sapiens, DLD-1): 10.1 nM

SMILES: CCCC(=O)NC(c1ccco1)C(O)C(=O)OC1CC2(O)C(OC(=O)c3ccccc3)C3C4(OC(C)=O)COC4CC(O)C3(C)C(=O)C(OC(=O)C3CC3)C(=C1C)C2(C)C (stereo not drawn) [Compound 4062]
- IC50 ([2]; 72 h drug incubation): 7.64 nM
- IC50 ([3]; 72 h drug incubation): 0.59 nM

SMILES: CC(=O)OC12COC1CC(O)C1(C)C(=O)C(OC(=O)C3CC3)C3=C(C)C(OC(=O)C(O)C(NC(=O)OCC(C)C)c4cccs4)CC(O)(C(OC(=O)c4ccccc4)C21)C3(C)C (stereo not drawn) [Compound 3129]
- IC50 ([2]; 72 h drug incubation): 2.88 nM
- IC50 ([3]; 72 h drug incubation): 1.53 nM

SMILES: CC(=O)OC12COC1CC(O)C1(C)C(=O)C(OC(=O)C3CC3)C3=C(C)C(OC(=O)C(O)C(NC(=O)OCC(C)C)c4ccoc4)CC(O)(C(OC(=O)c4ccccc4)C21)C3(C)C (stereo not drawn) [Compound 4665]
- IC50 ([2]; 72 h drug incubation): 28.4 nM
- IC50 ([3]; 72 h drug incubation): 2.13 nM

SMILES: CC(=O)OC12COC1CC(O)C1(C)C(=O)C(OC(=O)C3CC3)C3=C(C)C(OC(=O)C(O)C(NC(=O)OC(C)C)c4ccco4)CC(O)(C(OC(=O)c4ccccc4)C21)C3(C)C (stereo not drawn) [Compound 3853, reference compound]
- Rat tox score PO (Sprague-Dawley rats [1]; scale 0 to 10): 1
- IC50 ([2]; 72 h drug incubation): 0.99 nM
- IC50 ([3]; 72 h drug incubation): 0.08 nM
- Rat tox score IV (Sprague-Dawley rats [4]; scale 0 to 10): 1

SMILES: CC(=O)OC12COC1CC(O)C1(C)C(=O)C(OC(=O)C3CC3)C3=C(C)C(OC(=O)C(O)C(NC(=O)OCC(C)C)c4ccsc4)CC(O)(C(OC(=O)c4ccccc4)C21)C3(C)C (stereo not drawn) [Compound 5011]
- IC50 ([2]; 72 h drug incubation): 8.47 nM
- IC50 ([3]; 72 h drug incubation): 2.99 nM

SMILES: CCOC(=O)NC(c1cccs1)C(O)C(=O)OC1CC2(O)C(OC(=O)c3ccccc3)C3C4(OC(C)=O)COC4CC(O)C3(C)C(=O)C(OC(=O)C3CC3)C(=C1C)C2(C)C (stereo not drawn) [Compound 4051]
- Rat tox score PO (Sprague-Dawley rats [1]; scale 0 to 10): 5
- IC50 ([2]; 72 h drug incubation): 1.62 nM
- IC50 ([3]; 72 h drug incubation): 0.3 nM

SMILES: CCOC(=O)NC(c1ccco1)C(O)C(=O)OC1CC2(O)C(OC(=O)c3ccccc3)C3C4(OC(C)=O)COC4CC(O)C3(C)C(=O)C(OC(=O)C3CC3)C(=C1C)C2(C)C (stereo not drawn) [Compound 3677]
- IC50 ([2]; 72 h drug incubation): 18.6 nM
- IC50 ([3]; 72 h drug incubation): 0.3 nM

SMILES: CC(=O)OC12COC1CC(O)C1(C)C(=O)C(OC(=O)C3CC3)C3=C(C)C(OC(=O)C(O)C(NC(=O)OC(C)(C)C)c4ccsc4)CC(O)(C(OC(=O)c4ccccc4)C21)C3(C)C (stereo not drawn) [Compound 2794]
- IC50 ([2]; 72 h drug incubation): 2.03 nM
- IC50 ([3]; 72 h drug incubation): 0.28 nM

SMILES: CC(=O)OC12COC1CC(O)C1(C)C(=O)C(OC(=O)C3CC3)C3=C(C)C(OC(=O)C(O)C(NC(=O)OC(C)(C)C)c4ccoc4)CC(O)(C(OC(=O)c4ccccc4)C21)C3(C)C (stereo not drawn) [Compound 2781, reference compound]
- Rat tox score PO (Sprague-Dawley rats [1]; scale 0 to 10): 0
- IC50 ([2]; 72 h drug incubation): 1.91 nM
- IC50 ([3]; 72 h drug incubation): 0.18 nM
- Rat tox score IV (Sprague-Dawley rats [4]; scale 0 to 10): 1

SMILES: CCCC(=O)NC(c1cccs1)C(O)C(=O)OC1CC2(O)C(OC(=O)c3ccccc3)C3C4(OC(C)=O)COC4CC(O)C3(C)C(=O)C(OC(=O)C3CC3)C(=C1C)C2(C)C (stereo not drawn) [Compound 3132]
- IC50 ([2]; 72 h drug incubation): 5.33 nM
- IC50 ([3]; 72 h drug incubation): 0.37 nM

SMILES: CC(=O)OC12COC1CC(O)C1(C)C(=O)C(OC(=O)C3CC3)C3=C(C)C(OC(=O)C(O)C(NC(=O)OC(C)(C)C)c4ccccn4)CC(O)(C(OC(=O)c4ccccc4)C21)C3(C)C (stereo not drawn) [Compound 2802]
- IC50 ([2]; 72 h drug incubation): 3.32 nM
- IC50 ([3]; 72 h drug incubation): 0.3 nM

SMILES: CC(=O)OC12COC1CC(O)C1(C)C(=O)C(OC(=O)C3CC3)C3=C(C)C(OC(=O)C(O)C(NC(=O)OC(C)(C)C)c4ccco4)CC(O)(C(OC(=O)c4ccccc4)C21)C3(C)C (stereo not drawn) [Compound 0843, reference compound]
- Rat tox score PO (Sprague-Dawley rats [1]; scale 0 to 10): 0
- IC50 ([2]; 72 h drug incubation): 0.86 nM
- IC50 ([3]; 72 h drug incubation): 0.24 nM
- Rat tox score IV (Sprague-Dawley rats [4]; scale 0 to 10): 0

SMILES: CC(=O)O[C@@]12CO[C@@H]1C[C@H](O)[C@@]1(C)C(=O)[C@H](O)C3=C(C)[C@@H](OC(=O)[C@H](O)[C@@H](NC(=O)OC(C)(C)C)c4ccccc4)C[C@@](O)([C@@H](OC(=O)c4ccccc4)[C@H]21)C3(C)C [docetaxel]
- IC50 ([2]; 72 h drug incubation): 6.7 nM
- IC50 ([3]; 72 h drug incubation): 0.6 nM
- IC50 [7]: 9.1 nM

SMILES: CC(=O)OC12COC1CC(O)C1(C)C(=O)C(OC(=O)C3CC3)C3=C(C)C(OC(=O)C(O)C(NC(=O)OCC(C)C)c4ccco4)CC(O)(C(OC(=O)c4ccccc4)C21)C3(C)C (stereo not drawn) [Compound 3102, reference compound]
- Rat tox score PO (Sprague-Dawley rats [1]; scale 0 to 10): 6
- Efficacy Score = 10*(TWd1−TWdn)/TWd1 ([8]; Dose 60, best score 10): 2.6
- Efficacy Score = 10*(TWd1−TWdn)/TWd1 ([8]; Dose 120, best score 10): 5.3
- IC50 ([2]; 72 h drug incubation): 1.49 nM
- Efficacy Score = 10*(TWd1−TWdn)/TWd1 ([9]; Dose 60, best score 10): 1.3
- Efficacy Score = 10*(TWd1−TWdn)/TWd1 ([9]; Dose 120, best score 10): 5.3
- IC50 ([3]; 72 h drug incubation): 0.33 nM
- Rat tox score IV (Sprague-Dawley rats [4]; scale 0 to 10): 6
